Data from article doi:10.1101/2025.02.12.637899v1 (biorxiv, 2025).
Read-outs that look alike come from different tables or passages of the source.

Legend:
[1] = target: T1, hP2X3R (human P2X3 receptor, S15V mutant) (Homo sapiens, UniProt P56373, S15V); assay: calcium influx (Calcium […]), […]1 cells; assay type: cell-based
T1 construct: gene P2RX3; S15V mutant to prevent fast desensitization; stably expressed in 1321N1 astrocytoma cells by retroviral system
T1 sequence (P56373 1-397 S15V): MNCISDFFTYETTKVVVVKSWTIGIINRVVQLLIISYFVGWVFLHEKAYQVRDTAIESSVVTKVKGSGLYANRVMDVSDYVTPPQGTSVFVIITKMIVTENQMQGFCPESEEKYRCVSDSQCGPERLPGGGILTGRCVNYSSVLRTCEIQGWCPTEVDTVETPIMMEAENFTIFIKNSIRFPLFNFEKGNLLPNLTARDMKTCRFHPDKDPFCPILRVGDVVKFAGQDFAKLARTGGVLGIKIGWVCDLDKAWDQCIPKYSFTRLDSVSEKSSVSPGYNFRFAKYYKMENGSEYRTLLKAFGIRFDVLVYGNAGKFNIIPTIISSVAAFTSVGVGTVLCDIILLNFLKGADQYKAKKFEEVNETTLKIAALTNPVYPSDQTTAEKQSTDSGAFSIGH

[2] = target: T2, mP2X7R (full-length wild-type mouse P2X7 receptor) (Mus musculus, UniProt Q9Z1M0); assay: calcium influx (Fluo-4), […]1 cells; assay type: cell-based
T2 construct: gene P2rx7; full-length wild-type homotrimer; untagged in Xenopus oocytes for TEVC
T2 sequence (Q9Z1M0 1-595): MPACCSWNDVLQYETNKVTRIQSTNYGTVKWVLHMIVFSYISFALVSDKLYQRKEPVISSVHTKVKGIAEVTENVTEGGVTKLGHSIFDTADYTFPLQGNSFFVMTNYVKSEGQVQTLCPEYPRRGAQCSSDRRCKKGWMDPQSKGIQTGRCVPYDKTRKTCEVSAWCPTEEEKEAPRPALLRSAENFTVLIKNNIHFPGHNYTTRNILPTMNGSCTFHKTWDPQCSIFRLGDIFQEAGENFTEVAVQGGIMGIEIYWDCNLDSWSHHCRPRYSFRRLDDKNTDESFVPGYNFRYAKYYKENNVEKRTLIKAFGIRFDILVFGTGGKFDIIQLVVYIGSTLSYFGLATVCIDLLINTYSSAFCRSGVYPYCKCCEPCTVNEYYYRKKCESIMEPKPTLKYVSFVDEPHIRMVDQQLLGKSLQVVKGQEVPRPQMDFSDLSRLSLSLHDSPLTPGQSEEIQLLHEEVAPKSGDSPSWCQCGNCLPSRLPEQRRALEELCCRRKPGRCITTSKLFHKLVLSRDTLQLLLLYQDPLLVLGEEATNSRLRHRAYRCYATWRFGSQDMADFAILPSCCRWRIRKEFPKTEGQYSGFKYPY

[3] = target: T3, hP2X4R (human P2X4 receptor) (Homo sapiens, UniProt Q99571); assay: calcium influx (Fluo-4), […]1 cells; assay type: cell-based
T3 construct: gene P2RX4; stably expressed in 1321N1 astrocytoma cells by retroviral system
T3 sequence (Q99571 1-388): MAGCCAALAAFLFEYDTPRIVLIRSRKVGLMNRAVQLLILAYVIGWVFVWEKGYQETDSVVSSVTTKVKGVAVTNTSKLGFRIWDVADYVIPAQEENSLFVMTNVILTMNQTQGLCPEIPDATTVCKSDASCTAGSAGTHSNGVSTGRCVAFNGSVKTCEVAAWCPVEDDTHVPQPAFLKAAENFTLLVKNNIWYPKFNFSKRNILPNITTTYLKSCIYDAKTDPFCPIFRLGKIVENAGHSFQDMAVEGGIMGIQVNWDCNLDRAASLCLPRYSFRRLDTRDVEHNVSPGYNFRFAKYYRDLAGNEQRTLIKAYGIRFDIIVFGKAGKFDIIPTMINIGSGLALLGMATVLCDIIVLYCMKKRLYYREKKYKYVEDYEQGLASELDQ

[4] = target: T4, hP2X7R (full-length wild-type human P2X7 receptor) (Homo sapiens, UniProt Q99572); assay: calcium influx (Fluo-4), […]1 cells; assay type: cell-based; conditions: agonist BzATP at EC80; allosteric antagonist, classical allosteric site; pH 7.4
T4 construct: gene P2RX7; full-length wild-type homotrimer; structures: C-terminal GFP, 3C site and His tag, digested with HRV 3C, from HEK293 / HEK293 GNTI- cells; BLI: biotinylated receptor; TEVC: untagged in Xenopus oocytes; calcium influx: 1321N1 cells; ethidium uptake: HEK293 cells
T4 sequence (Q99572 1-595): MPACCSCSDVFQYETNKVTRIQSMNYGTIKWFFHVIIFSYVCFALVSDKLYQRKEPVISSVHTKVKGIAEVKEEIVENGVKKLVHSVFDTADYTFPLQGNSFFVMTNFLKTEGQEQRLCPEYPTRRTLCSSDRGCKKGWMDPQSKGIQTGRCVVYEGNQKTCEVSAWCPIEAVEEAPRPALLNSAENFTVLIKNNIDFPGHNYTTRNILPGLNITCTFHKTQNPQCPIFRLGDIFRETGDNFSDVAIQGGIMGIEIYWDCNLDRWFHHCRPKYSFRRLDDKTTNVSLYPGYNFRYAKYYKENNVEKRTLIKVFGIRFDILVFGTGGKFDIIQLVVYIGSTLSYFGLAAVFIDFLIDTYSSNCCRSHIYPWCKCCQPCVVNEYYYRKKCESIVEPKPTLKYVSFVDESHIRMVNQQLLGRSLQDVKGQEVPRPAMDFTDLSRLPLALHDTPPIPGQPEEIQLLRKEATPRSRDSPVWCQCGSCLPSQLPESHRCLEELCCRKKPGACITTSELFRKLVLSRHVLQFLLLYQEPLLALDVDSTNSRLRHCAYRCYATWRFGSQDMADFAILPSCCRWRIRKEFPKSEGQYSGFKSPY

[5] = target: T5, rP2X7R (full-length wild-type rat P2X7 receptor) (Rattus norvegicus, UniProt Q64663); assay: calcium influx (Fluo-4), […]1 cells; assay type: cell-based
T5 construct: gene P2rx7; full-length wild-type homotrimer; untagged in Xenopus oocytes for TEVC
T5 sequence (Q64663 1-595): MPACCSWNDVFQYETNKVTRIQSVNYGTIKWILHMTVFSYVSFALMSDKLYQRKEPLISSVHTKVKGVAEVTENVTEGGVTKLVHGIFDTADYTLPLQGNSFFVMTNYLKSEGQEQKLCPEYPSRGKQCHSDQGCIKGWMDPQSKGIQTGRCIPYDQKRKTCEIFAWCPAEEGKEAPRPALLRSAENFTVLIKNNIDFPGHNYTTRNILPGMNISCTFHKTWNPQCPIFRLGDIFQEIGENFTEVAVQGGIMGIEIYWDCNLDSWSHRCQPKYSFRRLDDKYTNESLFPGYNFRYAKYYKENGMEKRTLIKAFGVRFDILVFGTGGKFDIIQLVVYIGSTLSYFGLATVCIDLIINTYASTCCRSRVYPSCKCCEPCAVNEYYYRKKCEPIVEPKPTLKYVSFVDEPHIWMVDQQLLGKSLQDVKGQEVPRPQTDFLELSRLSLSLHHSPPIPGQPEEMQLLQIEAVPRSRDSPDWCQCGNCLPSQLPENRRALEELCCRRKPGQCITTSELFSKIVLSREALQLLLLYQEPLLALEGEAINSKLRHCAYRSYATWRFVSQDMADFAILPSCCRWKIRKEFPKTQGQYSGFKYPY

[6] = target: T6, hP2X2R (human P2X2 receptor) (Homo sapiens, UniProt Q9UBL9); assay: calcium influx (Fluo-4), […]1 cells; assay type: cell-based
T6 construct: gene P2RX2; stably expressed in 1321N1 astrocytoma cells by retroviral system
T6 sequence (Q9UBL9 1-471): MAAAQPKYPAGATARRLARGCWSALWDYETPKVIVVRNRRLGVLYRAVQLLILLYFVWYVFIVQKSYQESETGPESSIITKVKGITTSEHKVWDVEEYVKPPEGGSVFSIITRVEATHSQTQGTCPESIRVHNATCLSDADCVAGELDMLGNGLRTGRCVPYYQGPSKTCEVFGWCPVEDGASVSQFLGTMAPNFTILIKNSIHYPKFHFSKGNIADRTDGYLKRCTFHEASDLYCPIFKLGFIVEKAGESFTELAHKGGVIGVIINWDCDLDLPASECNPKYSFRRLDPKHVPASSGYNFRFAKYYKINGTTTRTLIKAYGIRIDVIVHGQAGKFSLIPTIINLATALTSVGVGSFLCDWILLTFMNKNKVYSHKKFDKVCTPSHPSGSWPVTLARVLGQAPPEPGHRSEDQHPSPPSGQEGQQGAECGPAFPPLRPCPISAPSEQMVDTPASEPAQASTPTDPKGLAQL

[7] = target: T4, hP2X7R (full-length wild-type human P2X7 receptor); assay: ethidium bromide accumulation, HEK293 cells expressing hP2X7R; assay type: cell-based
Description: ethidium bromide accumulation, HEK293 cells expressing hP2X7R on hP2X7R (full-length wild-type human P2X7 receptor)

[8] = target: T4, hP2X7R (full-length wild-type human P2X7 receptor); assay: two-electrode voltage clamp, Xenopus oocytes; assay type: cell-based
[9] = target: T5, rP2X7R (full-length wild-type rat P2X7 receptor); assay: two-electrode voltage clamp, Xenopus oocytes; assay type: cell-based
[10] = target: T4, hP2X7R (full-length wild-type human P2X7 receptor); assay: bio-layer interferometry, kinetic […] fit; assay type: binding
[11] = target: T2, mP2X7R (full-length wild-type mouse P2X7 receptor); assay: two-electrode voltage clamp, Xenopus oocytes; assay type: cell-based

Structure (SMILES): O=C(NNc1ccccc1Cl)C12CC3CC(CC(C3)C1)C2 [UB-ALT-P30]
- inhibition at 10 µM [1]: 86 ± 9%
- IC50 [2]: 150 ± 27 nM
- inhibition at 10 µM [3]: 44 ± 14%
- IC50 [4]: 18 ± 8.3 nM
- IC50 [5]: 120 ± 50 nM
- inhibition at 10 µM [6]: 29 ± 7%

Structure (SMILES): CC12CC3CC(C)(C1)CC(C(=O)NNc1ccccc1Cl)(C3)C2 [UB-ALT-P36]
- IC50 [7]: 477 ± 170 nM

Structure (SMILES): CC12CC3CC1(C)C1(C)CC3(C(=O)NNc3ccccc3Cl)CC21C [UB-MBX-46]
- IC50 ([2]; agonist BzATP at EC80, pH 7.4): 4.52 ± 0.72 nM
- IC50 ([5]; agonist BzATP at EC80, pH 7.4): 40.6 ± 10.4 nM

Structure (SMILES): Nc1ncnc2c1ncn2[C@@H]1O[C@H](COP(=O)(O)OP(=O)(O)OP(=O)(O)O)[C@@H](O)[C@H]1O [ATP]
- EC50 [8]: 89000 ± 8300 nM
- EC50 [9]: 34000 ± 8400 nM
- Kd [10]: 650 ± 120 nM
- EC50 [11]: 70000 ± 17000 nM

Structure (SMILES): CC12CC3(C)CC(C)(C1)CC(C(=O)NNc1ccccc1Cl)(C2)C3 [UB-ALT-P37]
- IC50 [7]: > 1000 nM

Structure (SMILES): O=C(NNc1ccccc1Cl)C12C3C4C5C3C1C5C42 (stereo not drawn) [UB-ALT-P38]
- IC50 [7]: 430 ± 64 nM
